In US20240383856A1 (Zedira GmbH, priority 2021, published 2024):
Like-named read-outs stand apart in the source and are kept apart here.

Key:
[1] = target: T1, recombinant human transglutaminase 2 (Homo sapiens, UniProt P21980); experiment: Transglutaminase assay (DCC-assay): incorporation of dansylcadaverine into dimethylcasein; type: biochemical
T1 construct: purchased Zedira T022
T1 sequence (P21980 1-687): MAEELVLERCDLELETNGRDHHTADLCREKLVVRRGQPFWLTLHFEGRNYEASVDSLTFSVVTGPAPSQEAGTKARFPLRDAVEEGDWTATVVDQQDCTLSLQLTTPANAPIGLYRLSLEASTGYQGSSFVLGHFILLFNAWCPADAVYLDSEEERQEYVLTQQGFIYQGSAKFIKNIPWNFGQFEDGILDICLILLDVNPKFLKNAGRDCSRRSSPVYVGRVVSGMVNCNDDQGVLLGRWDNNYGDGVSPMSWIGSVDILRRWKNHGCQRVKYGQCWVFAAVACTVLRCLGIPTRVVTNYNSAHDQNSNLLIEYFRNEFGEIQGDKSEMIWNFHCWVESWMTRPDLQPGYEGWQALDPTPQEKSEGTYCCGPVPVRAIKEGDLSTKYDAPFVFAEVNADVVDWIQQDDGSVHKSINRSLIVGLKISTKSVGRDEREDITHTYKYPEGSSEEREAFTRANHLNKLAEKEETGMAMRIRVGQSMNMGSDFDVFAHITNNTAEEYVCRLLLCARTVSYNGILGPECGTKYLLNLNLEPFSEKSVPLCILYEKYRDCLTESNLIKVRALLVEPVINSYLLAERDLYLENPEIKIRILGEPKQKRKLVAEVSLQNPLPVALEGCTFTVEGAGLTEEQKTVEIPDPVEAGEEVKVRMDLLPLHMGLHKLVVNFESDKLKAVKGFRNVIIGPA
Method in brief: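 IC50 is the inhibitor level that blocks 50% of initial activity. Activity is the fluorescence slope (λex 330, λem 500 nm) between 20 and 30 min of a 37 °C run, relative to a 2% DMSO control. The enzyme is recombinant human tissue transglutaminase, 10 nM final, tested against a 1:2 inhibitor dilution series in a pH 8.0 mix with 10 mM CaCl2, 10 mM glutathione, 16.7 µM dansylcadaverine and 4 µM N,N-dimethylcasein.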

[2] = Multiple-dosing PK study, tissue concentration in lung and liver; type: in vivo; settings: mice, 200 mg/kg oral twice daily, after the eighth dose (four days)
Procedure: Additionally, in a multiple-dosing PK study, II-3 was orally administered to 3 mice with 200 mg/kg doses (dose volume 10 mL/kg) twice daily (12 h intervals). After the animals were sacrificed, the liver and lung were removed. The homogenates of the respective tissues were analyzed by LC-MS to determine the concentration of the compound. The tissue concentration in lung and liver after the eighth dose (four days) was 6,800 and 10,400 ng/g, respectively, showing that the compound reaches the tissue at pharmacological active concentration.

[3] = Caco-2 permeability assay (CacoReady kit); type: in vitro ADME; settings: human
Method in brief: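 Intestinal permeability modelled with kit-supplied Caco-2 barriers, run as the maker specifies; each compound reported as Papp.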

## CNC(=O)C(=O)CC[C@H](NC(=O)c1oc2ccccc2c1C)C(=O)Nc1cccn(CC(=O)NC2C3CC4CC(C3)CC2C4)c1=O (stereo partly drawn) [II-3, (S)-N1-(1-(2-(2-adamantylamino)-2-oxoethyl)-2-oxo-1,2-dihydropyridin-3-yl)-N6-methyl-2-(3-methylbenzofuran-2-carboxamido)-5-oxohexanediamide]
[1]; TG2, table with the PK study
  IC90: 180 nM
[1]; TG2, table with the PK study, read-out: IC50
  IC50: 23 nM
[1]; recombinant human TG2 10 nM, dansylcadaverine incorporation into dimethylcasein, read-out: IC50 TG2
  IC50: < 40 nM
[2]
  tissue concentration in liver: 10,400 ng/g
  tissue concentration in lung: 6,800 ng/g
[3]; Caco-2, Caco-2, read-out: Papp [cm/s] ×10^−6
  Papp: 8.4 ×10⁻⁶ cm/s
[3]; Caco-2, Caco-2 barrier, CacoReady kit, above 1×10^−6 cm/s classified as permeable
  Papp: 1 to 10 ×10⁻⁶ cm/s
